Data published in a melting point compilation (Tetko et al.).

Compound	melting point
Cc1c(CCO)c(=O)n2c([nH]c3ccccc32)c1C#N	250 °C
CCn1cc(C(=O)O)c(=O)c2ccc(-c3ccncc3)cc21	290 °C
O=C(O)c1sc(Br)c2c1OCCO2	150 °C
Oc1nn(-c2ccc(Br)cc2)cc1Br	199 to 201 °C
NC(=O)NC=O	170 to 173 °C
CC(C=Cc1ccccc1)c1ccccc1 (stereo not given)	47.5 °C
CCCCCCCOC(=O)CCCCCC	-33 °C
CC(=O)OC(C)OC(C)=O	18.9 °C
N#C/C(=N\Nc1cc(Cl)c(Cl)cc1Cl)c1nc(-c2ccc(Cl)cc2)cs1	176 °C
O=C1C=C(Nc2ccccc2)CCC1	178 to 182 °C
CC(=O)N(CC(C)C(=O)O)c1c(I)cc(I)c(N)c1I (stereo not given)	224 °C
Fc1ccc2nc(C(F)(F)F)cc(Cl)c2c1	78 to 82 °C
COc1ccc(-c2nnc3n2NC(c2ccccc2O)S3)cc1 (stereo not given)	220 °C
CCC(O)c1ccc(-c2ccccc2F)cc1 (stereo not given)	55 to 56 °C
OC1CN2CCCC(O)C2C1O (stereo not given)	144 °C
Ic1cccs1	-40 °C
Cn1c(Br)nc(C(=O)O)c1C(=O)O	160 °C
Cc1nc(-c2ccccc2)sc1CN	230 °C
O=C(O)CNC(=O)CCl	102 °C
Cc1cccc(NN=C2C(=O)N(C)C(=O)N(C)C2=O)c1	228 °C
Cc1ccc(C#N)c(=O)[nH]1	293 to 295 °C
CC(C)CC=NO	48.5 °C
CC(Oc1c(Cl)cccc1Cl)C1=NCCN1 (stereo not given)	126 °C
Clc1cc(Cl)nc(Cc2ccccc2)n1	56 to 57 °C
COc1cc(C)c2c(c1)CC2=O	83 °C
Oc1ncc(C(F)(F)F)cc1Cl	157 to 159 °C
FC(F)C(F)(F)OCC(Cn1cncn1)c1ccc(Cl)cc1Cl (stereo not given)	6 °C
N#Cc1cccc(-c2cccs2)c1	58 to 60 °C

Compound	melting point
CC(CC(=O)O)C(=O)O (stereo not given)	118 °C
CCCCCCCCN(CCCCCCCC)CCCCCCCC	34 °C
O=Cc1cc(F)c(O)cc1F	147 °C
O=C(NC(=O)c1c(F)cccc1F)Nc1cc(Cl)c(Oc2ncc(C(F)(F)F)cc2Cl)c(Cl)c1	223 °C
CC(=O)OCN1C(=O)NC(c2ccccc2)(c2ccccc2)C1=O	158 °C
CC(C)(C)OC(=O)N1CCN(c2ccc(C(=O)O)cn2)CC1	298 to 300 °C
CCOC(=O)c1[nH]cnc1C	204 to 206 °C
O=C1OC2(Cc3ccccc31)Cc1ccccc12 (stereo not given)	88 °C
CCO[Si](C)(C)OCC	-70 °C
CC1(C)C2CCC1(C)C(O)C2 (stereo not given)	214 °C
CCC1(CC)OC(=O)C2CCC1(C)OC2(C)C (stereo not given)	90 °C
C=CCN=C(S)NCCO	78 °C
Cc1ccc(C(=O)N(C)C)cc1	41 °C
O=C(O)C1OC(OCC(Cl)(Cl)Cl)C(O)C(O)C1O (stereo not given)	142 °C
COc1ccc(CC(=O)C(=O)O)cc1	194 °C
CC(C)(NC(=O)C(Br)C(C)(C)C)c1ccccc1 (stereo not given)	180 °C
Cc1cccc(OCC(=O)O)c1C	186 to 190 °C
COC(=O)C(NC(=O)OCc1ccccc1)P(=O)(OC)OC (stereo not given)	78 °C
O=C1CCc2ccccc2N1	164 °C
O=C1c2nonc2CCC1Br (stereo not given)	65 to 68 °C
Cn1nc(CO)cc1-c1cccs1	56 to 60 °C
O=C(O)CCCCCCCO	51 to 57 °C
N=C1NC(=O)C(=NNc2ccccc2[N+](=O)[O-])S1	274 °C
O=[N+]([O-])c1ccc(-c2nnc3n2CN(c2ccc([N+](=O)[O-])cc2)CS3)cc1	320 °C
O=C1C=CC2=CC(=O)C=CC(=C1)C2	122 °C
C/C(=C\C=C\c1ccccc1)C(=O)O	159 °C
N#Cc1cc(Br)ccc1O	160 to 162 °C
